Source: the NIST ThermoML archive (doi:10.1021/je0504358)
± gives the expanded uncertainty stated by the source.

Conditions: Liquid, Twin ebulliometer

With `CCCCCC=O` [hexanal] the “vapor or sublimation pressure” value (322.27 K) was 5.184 ± 0.015 kPa, the “vapor or sublimation pressure” value (325.43 K) was 6.001 ± 0.016 kPa and the “vapor or sublimation pressure” value (327.84 K) was 6.711 ± 0.016 kPa. For the same compound, the “vapor or sublimation pressure” value (330.22 K) was 7.51 ± 0.016 kPa, the “vapor or sublimation pressure” value (333.56 K) was 8.713 ± 0.016 kPa and the “vapor or sublimation pressure” value (338.89 K) was 10.99 ± 0.016 kPa. The “vapor or sublimation pressure” value (342.12 K) was 12.59 ± 0.016 kPa, the “vapor or sublimation pressure” value (347.22 K) was 15.55 ± 0.017 kPa and the “vapor or sublimation pressure” value (353.44 K) was 19.8 ± 0.017 kPa. For the same compound, the “vapor or sublimation pressure” value (360.11 K) was 25.45 ± 0.018 kPa, the “vapor or sublimation pressure” value (366.28 K) was 31.91 ± 0.019 kPa and the “vapor or sublimation pressure” value (371.95 K) was 38.88 ± 0.021 kPa. The “vapor or sublimation pressure” value (377.98 K) was 47.56 ± 0.022 kPa and the “vapor or sublimation pressure” value (402.17 K) was 99.72 ± 0.028 kPa.
With `O=C1C=CCCC1` [2-cyclohexen-1-one] the “vapor or sublimation pressure” value (350.4 K) was 4.147 ± 0.015 kPa, the “vapor or sublimation pressure” value (353.66 K) was 4.786 ± 0.015 kPa and the “vapor or sublimation pressure” value (357.56 K) was 5.662 ± 0.015 kPa. For the same compound, the “vapor or sublimation pressure” value (361.48 K) was 6.709 ± 0.016 kPa, the “vapor or sublimation pressure” value (366.16 K) was 8.095 ± 0.016 kPa and the “vapor or sublimation pressure” value (370.32 K) was 9.581 ± 0.016 kPa. The “vapor or sublimation pressure” value (374.97 K) was 11.46 ± 0.016 kPa, the “vapor or sublimation pressure” value (379 K) was 13.31 ± 0.016 kPa and the “vapor or sublimation pressure” value (380.5 K) was 14.06 ± 0.016 kPa. The “vapor or sublimation pressure” value (386.63 K) was 17.53 ± 0.017 kPa, the “vapor or sublimation pressure” value (388.4 K) was 18.68 ± 0.017 kPa and the “vapor or sublimation pressure” value (391.77 K) was 20.95 ± 0.017 kPa. For the same compound, the “vapor or sublimation pressure” value (397.16 K) was 25.2 ± 0.018 kPa, the “vapor or sublimation pressure” value (404.53 K) was 32.03 ± 0.018 kPa and the “vapor or sublimation pressure” value (407.95 K) was 35.56 ± 0.019 kPa. The “vapor or sublimation pressure” value (410.86 K) was 39.01 ± 0.02 kPa, the “vapor or sublimation pressure” value (424.23 K) was 57.64 ± 0.024 kPa and the “vapor or sublimation pressure” value (445 K) was 100.4 ± 0.027 kPa.
For `CC1CCCCC1=O` (stereo unspecified) [2-methylcyclohexanone], the “vapor or sublimation pressure” value (338.76 K) was 3.333 ± 0.015 kPa, the “vapor or sublimation pressure” value (342.2 K) was 3.912 ± 0.015 kPa and the “vapor or sublimation pressure” value (348.85 K) was 5.267 ± 0.015 kPa. The “vapor or sublimation pressure” value (350.96 K) was 5.763 ± 0.015 kPa, the “vapor or sublimation pressure” value (353.34 K) was 6.401 ± 0.016 kPa and the “vapor or sublimation pressure” value (355.93 K) was 7.129 ± 0.016 kPa. For the same compound, the “vapor or sublimation pressure” value (358.53 K) was 7.941 ± 0.016 kPa, the “vapor or sublimation pressure” value (360.73 K) was 8.678 ± 0.016 kPa and the “vapor or sublimation pressure” value (363.09 K) was 9.543 ± 0.016 kPa. For the same compound, the “vapor or sublimation pressure” value (366.66 K) was 10.98 ± 0.016 kPa, the “vapor or sublimation pressure” value (369.65 K) was 12.3 ± 0.016 kPa and the “vapor or sublimation pressure” value (372.7 K) was 13.79 ± 0.016 kPa. For the same compound, the “vapor or sublimation pressure” value (376.36 K) was 15.79 ± 0.017 kPa, the “vapor or sublimation pressure” value (381.72 K) was 19.12 ± 0.017 kPa and the “vapor or sublimation pressure” value (384.91 K) was 21.37 ± 0.017 kPa. For the same compound, the “vapor or sublimation pressure” value (389.42 K) was 24.9 ± 0.018 kPa, the “vapor or sublimation pressure” value (394.59 K) was 29.53 ± 0.018 kPa and the “vapor or sublimation pressure” value (398.32 K) was 33.29 ± 0.019 kPa. For the same compound, the “vapor or sublimation pressure” value (399.98 K) was 35.05 ± 0.019 kPa, the “vapor or sublimation pressure” value (408.17 K) was 45.03 ± 0.02 kPa and the “vapor or sublimation pressure” value (411.64 K) was 49.98 ± 0.022 kPa. For the same compound, the “vapor or sublimation pressure” value (414 K) was 53.52 ± 0.023 kPa, the “vapor or sublimation pressure” value (418.28 K) was 60.46 ± 0.023 kPa and the “vapor or sublimation pressure” value (436.94 K) was 99.71 ± 0.027 kPa.
